Experimental data published in patent US20100216827A1 (Metabolex, Inc., priority 2008, published 2010).
Where two headings read alike, the source gives them in different places.

Biological target: T1, human GPR120 (Homo sapiens, UniProt Q5NUL3)
T1 construct: host or cells: HEK293 cells coexpressing Gqi5
T1 sequence (Q5NUL3 1-361): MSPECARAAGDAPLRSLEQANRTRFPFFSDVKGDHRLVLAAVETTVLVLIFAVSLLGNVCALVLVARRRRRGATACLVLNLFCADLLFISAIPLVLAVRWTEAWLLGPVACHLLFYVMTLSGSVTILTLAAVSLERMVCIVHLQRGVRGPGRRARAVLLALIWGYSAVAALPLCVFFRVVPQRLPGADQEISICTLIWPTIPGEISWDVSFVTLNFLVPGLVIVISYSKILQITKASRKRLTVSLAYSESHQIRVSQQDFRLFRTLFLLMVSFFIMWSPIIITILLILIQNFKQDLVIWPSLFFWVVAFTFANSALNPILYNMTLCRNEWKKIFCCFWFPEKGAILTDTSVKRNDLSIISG
Experiment: Intracellular Ca2+ (FLIPR Calcium 4, Flexstation) assay in human GPR120 stable HEK293 cell line coexpressing Gqi5
Assay type: cell-based
Settings: for % Activity at 5 μM: 5 μM compound compared to the maximal activity of GW9508 at 6.7 μM (100%); for EC50: human GPR120 stably expressing cells, 8 concentrations 0.00001 to 20 μM
Procedure: Human GPR120 stable cell line was purchased from Multispan Inc (26219 Eden Landing Road, Hayward, Calif. 94545). This GPR120 cell line was generated in HEK293 cells coexpressing Gqi5. In this cell line, the Flag epitope tag (DYKDDDDK) was fused to the amino terminus of human GPR120 protein.
The concentration of intracellular Ca^2+ was measured as described below. Human GPR120 cells were plated in 96 well plates (Poly-D-Lysine coated black/clear Plate, Greiner Bio-One) at 70,000 cells per well and cultured overnight in conditions of 37° C. and 5% CO2. A Ca^2+ assay dye stock solution was prepared by adding 10 mL of assay buffer (HBSS/20 mM HEPES, pH 7.4) to FLIPR Calcium 4 Assay Bulk Kit (Molecular Devices). The 10 mL of Ca^2+ assay dye solution was prepared by further diluting 0.5 mL of Ca^2+ assay dye stock solution with 10 mL of assay buffer. The medium of the cells was removed and immediately 100 μl of the Ca^2+ assay dye solution was dispensed into each well followed by incubation at 37° C. and 5% CO2 for 50 minutes to incorporate the Ca^2+ dye into the cells. The cell plate was then placed in the Flexstation (Molecular Devices) for 20 minutes at 37° C. Compounds were dissolved in 100% DMSO and diluted to desired concentrations with assay buffer and placed in Flexstation simultaneously with the cell plate for 20 minute incubation at 37° C. prior to reading. Fluorescence intensity was measured immediately following compound addition (25 μl/well) on the Flexstation at an excitation wavelength of 485 nm and an emission wavelength of 525 with 515 nm auto cutoff. The resulting increase in fluorescence intensities corresponds to increases in intracellular Ca^2+ levels.
Compounds were dissolved in 100% DMSO to a concentration of 20 mM to provide stock solutions. To determine activity against human GPR120, compounds were added with human GPR120 stably expressing cells (described above), at 8 desired concentrations ranging from 0.00001 to 20 μM, in 96 well plates and fluorescence intensities were measured for 90 seconds with 2-second intervals. An EC50 value (concentration of the GPR120 agonist where 50% of the agonist's maximal activity is observed) was calculated using the changes (Max-Min) of fluorescent intensity.
To determine percent activity for a tested compound, the fluorescence intensity value obtained at a particular concentration were compared to the maximal fluorescence intensity value obtained for reference compound GW9508 (4-[[(3-phenoxyphenyl)methyl]amino]benzene propanoic acid; British Journal of Pharmacology 2006 148, 619-628) that acts as a full agonist of the GPR120 receptor. The maximal activity of GW9508 is designated as 100% activity. Typically, the GW9508 activity reached a maximum at a concentration of approximately 6.7 μM. Activities of compounds that were tested according to this method are shown in Table 1 below and are expressed as % activity at 5 μM compound compared to the maximal activity of GW9508 at 6.7 μM.

[1] = read-out: EC50 between >1 μM and ≦10 μM

| % Activity at 5 μM | EC50 (read-out: EC50 ≦ 1 μM) | EC50 [1] | SMILES |
| --- | --- | --- | --- |
| 115% | ≤ 1000 nM |  | Cc1cc(COc2c(F)cc(CC(C)C(=O)O)cc2F)c(-c2ccccc2)o1 (stereo not shown) [Example 116, 3-(3,5-Difluoro-4-((5-methyl-2-phenylfuran-3-yl)methoxy)phenyl)-2-methylpropanoic acid] |
| 100% | ≤ 1000 nM |  | Cc1onc(-c2ccccc2)c1COc1ccc2c(c1)CCC(CC(=O)O)C2 (stereo not shown) [Example 40, 2-(6-((5-methyl-3-phenylisoxazol-4-yl)methoxy)-1,2,3,4-tetrahydronaphthalen-2-yl)acetic acid] |
| 48% |  | 1000 to 10000 nM | CCc1ccc(-n2nc(C)cc2COc2ccc(C(C)(C)CC(=O)O)cc2)cc1 [Example 126, 3-(4-((1-(4-ethylphenyl)-3-methyl-1H-pyrazol-5-yl)methoxy)phenyl)-3-methylbutanoic acid] |
| 77% | ≤ 1000 nM |  | O=C(O)CCc1cc(F)c(OCc2snnc2-c2ccccc2)c(F)c1 [Example 2] |
| 98% | ≤ 1000 nM |  | Cc1cc(COc2ccc(CC(C)C(=O)O)cc2)n(-c2ccc(Cl)cc2)n1 (stereo not shown) [Example 86, 3-(4-((1-(4-chlorophenyl)-3-methyl-1H-pyrazol-5-yl)methoxy)phenyl)-2-methylpropanoic acid] |
| 100% | ≤ 1000 nM |  | Cc1cc(COc2ccc(CC(C)CC(=O)O)cc2)n(-c2ccc(Cl)cc2)n1 (stereo not shown) [Example 72, 4-(4-((1-(4-chlorophenyl)-3-methyl-1H-pyrazol-5-yl)methoxy)phenyl)-3-methylbutanoic acid] |
| 106% | ≤ 1000 nM |  | Cc1cc(COc2c(F)cc(CC(C)C(=O)O)cc2F)n(-c2ccc3c(c2)CCC3)n1 (stereo not shown) [Example 81, 3-(4-((1-(2,3-dihydro-1H-inden-5-yl)-3-methyl-1H-pyrazol-5-yl)methoxy)-3,5-difluorophenyl)-2-methylpropanoic acid] |
| 68% | ≤ 1000 nM |  | CCCCc1ccc(-n2nc(C)cc2COc2c(F)cc(CC(C)C(=O)O)cc2F)cc1 (stereo not shown) [Example 82, 3-(4-((1-(4-butylphenyl)-3-methyl-1H-pyrazol-5-yl)methoxy)-3,5-difluorophenyl)-2-methylpropanoic acid] |
| 106% | ≤ 1000 nM |  | Cc1cc(COc2c(F)cc(CC(C)C(=O)O)cc2F)n(-c2ccc(C)c(C)c2)n1 (stereo not shown) [Example 87, 3-(4-((1-(3,4-dimethylphenyl)-3-methyl-1H-pyrazol-5-yl)methoxy)-3,5-difluorophenyl)-2-methylpropanoic acid] |
| 109% | ≤ 1000 nM |  | Cc1cc(COc2c(F)cc(CC(C)C(=O)O)cc2F)n(-c2ccc(Br)cc2)n1 (stereo not shown) [Example 97, 3-(4-((1-(4-bromophenyl)-3-methyl-1H-pyrazol-5-yl)methoxy)-3,5-difluorophenyl)-2-methylpropanoic acid] |
| 92% | ≤ 1000 nM |  | Cc1onc(-c2ccc(Cl)cc2)c1COc1c(F)cc(CCC(=O)O)cc1F [Example 24, 3-(4-((3-(4-chlorophenyl)-5-methylisoxazol-4-yl)methoxy)-3,5-difluorophenyl)propanoic acid] |
| 85% | ≤ 1000 nM |  | O=C(O)C(F)(F)Cc1cc(F)c(OCc2cc(C(F)(F)F)nn2-c2ccc(Cl)cc2)c(F)c1 [Example 57, 3-(4-((1-(4-chlorophenyl)-3-(trifluoromethyl)-1H-pyrazol-5-yl)methoxy)-3,5-difluorophenyl)-2,2-difluoropropanoic acid] |
| 92% |  |  | O=C(O)CC1CCc2cc(OCc3cc(C(F)(F)F)nn3-c3ccc(Cl)cc3)ccc21 (stereo not shown) [Example 119, 2-(5-((1-(4-chlorophenyl)-3-(trifluoromethyl)-1H-pyrazol-5-yl)methoxy)-2,3-dihydro-1H-inden-1-yl)acetic acid] |
| 62% | ≤ 1000 nM |  | Cc1cc(COc2c(F)cc(CCC(=O)O)cc2F)n(-c2ccccc2)n1 [Example 46, 3-(3,5-difluoro-4-((3-methyl-1-phenyl-1H-pyrazol-5-yl)methoxy)phenyl)propanoic acid] |
| 73% | ≤ 1000 nM |  | O=C(O)CCc1cc(F)c(OCc2ccnn2-c2ccccc2)c(F)c1 [Example 48, 3-(3,5-difluoro-4-((1-phenyl-1H-pyrazol-5-yl)methoxy)phenyl)propanoic acid] |
| 74% |  | 1000 to 10000 nM | Cc1onc(-c2ccccc2)c1COc1c(F)cc(COCC(=O)O)cc1F [Example 34, 2-(3,5-difluoro-4-((5-methyl-3-phenylisoxazol-4-yl)methoxy)benzyloxy)acetic acid] |
| 72% | ≤ 1000 nM |  | Cc1noc(-c2ccccc2)c1COc1c(F)cc(CCC(=O)O)cc1F [Example 15, 3-(3,5-difluoro-4-((3-methyl-5-phenylisoxazol-4-yl)methoxy)phenyl)propanoic acid] |
| 95% | ≤ 1000 nM |  | Cc1cc(COc2c(F)cc(CC(C)C(=O)O)cc2F)n(-c2cccc(C(C)C)c2)n1 (stereo not shown) [Example 85, 3-(3,5-difluoro-4-((1-(3-isopropylphenyl)-3-methyl-1H-pyrazol-5-yl)methoxy)phenyl)-2-methylpropanoic acid] |
| 104% | ≤ 1000 nM |  | CCc1ccc(-n2nc(C)cc2COc2c(F)cc(C[C@@H](C)C(=O)O)cc2F)cc1 [Example 98, (R)-3-(4-((1-(4-ethylphenyl)-3-methyl-1H-pyrazol-5-yl)methoxy)-3,5-difluorophenyl)-2-methylpropanoic acid] |
| 106% | ≤ 1000 nM |  | Cc1cc(COc2ccc(CC(C)C(=O)O)cc2F)n(-c2ccc(Cl)cc2)n1 (stereo not shown) [Example 108, 3-(4-((1-(4-Chlorophenyl)-3-methyl-1H-pyrazol-5-yl)methoxy)-3-fluorophenyl)-2-methylpropanoic acid] |
| 32% |  | 1000 to 10000 nM | Cc1cc(COc2c(F)cc(C3=C(C(=O)O)CCC3)cc2F)n(-c2ccc(Cl)cc2)n1 [Example 107, 2-(4-((1-(4-Chlorophenyl)-3-methyl-1H-pyrazol-5-yl)methoxy)-3,5-difluorophenyl)cyclopent-1-enecarboxylic acid] |
| 99% | ≤ 1000 nM |  | CCCc1ccc(-n2nc(C)cc2COc2c(F)cc(CC(C)C(=O)O)cc2F)cc1 (stereo not shown) [Example 105, 3-(3,5-Difluoro-4-((3-methyl-1-(4-propylphenyl)-1H-pyrazol-5-yl)methoxy)phenyl)-2-methylpropanoic acid] |
| 92% | ≤ 1000 nM |  | Cc1cc(COc2c(F)cc(CC(C)C(=O)O)cc2F)n(-c2ccc(C#N)cc2)n1 (stereo not shown) [Example 80, 3-(4-((1-(4-cyanophenyl)-3-methyl-1H-pyrazol-5-yl)methoxy)-3,5-difluorophenyl)-2-methylpropanoic acid] |
| 47% |  | 1000 to 10000 nM | Cc1cc(COc2ccc(C(C)(C)CC(=O)O)cc2)n(-c2ccc(Cl)cc2)n1 [Example 125, 3-(4-((1-(4-chlorophenyl)-3-methyl-1H-pyrazol-5-yl)methoxy)phenyl)-3-methylbutanoic acid] |
| 81% | ≤ 1000 nM |  | Cc1cnn(-c2ccc(F)cc2)c1COc1c(F)cc(CCC(=O)O)cc1F [Example 51, 3-(3,5-difluoro-4-((1-(4-fluorophenyl)-4-methyl-1H-pyrazol-5-yl)methoxy)phenyl)propanoic acid] |
